Data published in patent US8119692B2 (priority 2007, dated 2012).

These molecules were tested against Lethal factor protease (Bacillus anthracis, UniProt P15917) (assay: biochemical). Details: LF (FRET) Ki^app.
Chain of Lethal factor protease (P15917 34-809 limits assumed): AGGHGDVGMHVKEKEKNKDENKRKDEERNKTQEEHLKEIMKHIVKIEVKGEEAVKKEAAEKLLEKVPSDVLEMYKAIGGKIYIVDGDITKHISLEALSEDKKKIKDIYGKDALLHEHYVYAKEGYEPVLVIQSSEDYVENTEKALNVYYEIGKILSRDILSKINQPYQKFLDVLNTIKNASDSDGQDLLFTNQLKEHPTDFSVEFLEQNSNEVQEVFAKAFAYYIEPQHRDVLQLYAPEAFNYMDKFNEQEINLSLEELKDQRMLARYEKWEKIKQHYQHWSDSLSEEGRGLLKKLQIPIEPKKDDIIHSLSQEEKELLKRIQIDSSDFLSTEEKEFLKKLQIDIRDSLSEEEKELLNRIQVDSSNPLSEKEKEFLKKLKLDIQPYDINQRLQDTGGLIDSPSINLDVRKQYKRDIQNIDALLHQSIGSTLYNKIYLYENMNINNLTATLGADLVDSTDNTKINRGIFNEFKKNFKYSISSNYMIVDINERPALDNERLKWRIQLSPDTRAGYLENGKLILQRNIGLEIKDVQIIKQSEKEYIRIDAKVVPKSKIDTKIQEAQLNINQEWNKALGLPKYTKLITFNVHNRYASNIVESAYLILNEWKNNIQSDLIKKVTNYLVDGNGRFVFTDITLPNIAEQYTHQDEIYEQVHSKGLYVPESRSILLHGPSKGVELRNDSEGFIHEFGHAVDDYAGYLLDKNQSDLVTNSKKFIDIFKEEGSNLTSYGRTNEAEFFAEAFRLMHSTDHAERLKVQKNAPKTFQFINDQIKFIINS
Molecule CO[C@H](C[C@H](CCN1CCC(c2ccccc2)CC1)C(=O)NO)c1ccc(F)cc1 [Compound 167987, (2S,4R)-4-(4-fluorophenyl)-N-hydroxy-4-methoxy-2-(2-(4-phenylpiperidin-1-yl)ethyl)butanamide] has a Ki of 760 nM.
Work on CO[C@H](C[C@H](CCN(c1ccccc1)c1ccccc1)C(=O)NO)c1ccc(F)cc1 [Compound 167796, (2S)-(2-Diphenylamino-ethyl)-(4R)-(4-fluoro-phenyl)-N-hydroxy-4-methoxy-butyramide] yielded a Ki of 2100 nM.
Molecule CO[C@H](C[C@H](CCN1CCC(Cc2ccccc2)CC1)C(=O)NO)c1ccc(F)cc1 [Compound 167940, (2S,4R)-2-(2-(4-benzylpiperidin-1-yl)ethyl)-4-(4-fluorophenyl)-N-hydroxy-4-methoxybutanamide] has a Ki of 400 nM.
In the case of CO[C@H](C[C@H](CCCCNCc1ccc(F)c(C)c1)C(=O)NO)c1ccc(F)cc1 [Compound 168136, (S)-6-(4-fluoro-3-methylbenzylamino)-2-((R)-2-(4-fluorophenyl)-2-methoxyethyl)-N-hydroxyhexanamide], the Ki is reported as 190 nM.
In the case of CO[C@H](C[C@H](CCN1CCCC1)C(=O)NO)c1ccc(F)cc1 [Compound 167923, (2S,4R)-4-(4-fluorophenyl)-N-hydroxy-4-methoxy-2-(2-(pyrrolidin-1-yl)ethyl)butanamide], the Ki is reported as 970 nM.
CO[C@H](C[C@H](CCCCN(C)Cc1ccc(F)cc1)C(=O)NO)c1ccc(F)cc1 [Compound 168138] gave a Ki of 390 nM.
With CO[C@H](C[C@H](CCN1CCN(CC2CCCCC2)CC1)C(=O)NO)c1ccc(F)cc1 [Compound 167961, (2S,4R)-2-(2-(4-(cyclohexylmethyl)piperazin-1-yl)ethyl)-4-(4-fluorophenyl)-N-hydroxy-4-methoxybutanamide] the Ki was 1800 nM.
Work on CCC[C@@H](C[C@@H](OC)c1ccc(F)cc1)C(=O)NO [Compound 167432, (S)-2-((R)-2-(4-fluorophenyl)-2-methoxyethyl)-N-hydroxypentanamide] yielded a Ki of 1570 nM.
Molecule CO[C@H](C[C@H](CCN(C)CCCc1ccccc1)C(=O)NO)c1ccc(F)cc1 [Compound 167953, (2S,4R)-4-(4-fluorophenyl)-N-hydroxy-4-methoxy-2-(2-(methyl(3-phenylpropyl)amino)ethyl)butanamide] has a Ki of 230 nM.
Molecule CO[C@H](C[C@H](CCN(C)Cc1ccc(F)cc1)C(=O)NO)c1ccc(F)cc1 [Compound 167795, (2S,4R)-2-(2-((4-fluorobenzyl)(methyl)amino)ethyl)-4-(4-fluorophenyl)-N-hydroxy-4-methoxybutanamide] has a Ki of 2100 nM.
Molecule CO[C@H](C[C@H](CCN(C)Cc1ccccc1)C(=O)NO)c1ccc(F)cc1 [Compound 167785, (2S,4R)-2-(2-(benzyl(methyl)amino)ethyl)-4-(4-fluorophenyl)-N-hydroxy-4-methoxybutanamide] has a Ki of 2000 nM.
Work on CO[C@H](CCC(=O)NO)c1ccc(F)cc1 [Compound 167204, (R)-4-(4-fluorophenyl)-N-hydroxy-4-methoxybutanamide] yielded a Ki of 7900 nM.
Work on COC(CCC(=O)NO)c1ccc(-c2ccccc2)cc1 (centres unmarked) [Compound 167506, 4-(biphenyl-4-yl)-N-hydroxy-4-methoxybutanamide] yielded a Ki of 85100 nM.
COc1cccc(C(CCC(=O)NO)OC)c1 (centres unmarked) [Compound 167458, N-hydroxy-4-methoxy-4-(3-methoxyphenyl)butanamide] was tested, and the Ki was 276000 nM.
Molecule CO[C@@H](C[C@@H](CCCc1ccccc1)C(=O)NO)c1ccc(F)cc1 [Compound 167341, (2R)-2-((2S)-2-(4-fluorophenyl)-2-methoxyethyl)-N-hydroxy-5-phenylpentanamide] has a Ki of 18000 nM.
Work on CO[C@H](C[C@H](CCN1CCCCCC1)C(=O)NO)c1ccc(F)cc1 [Compound 167911, (2S,4R)-2-(2-(azepan-1-yl)ethyl)-4-(4-fluorophenyl)-N-hydroxy-4-methoxybutanamide] yielded a Ki of 69500 nM.
Molecule CO[C@@H](CCC(=O)NO)c1ccc(F)cc1 [Compound 167205, (S)-4-(4-fluorophenyl)-N-hydroxy-4-methoxybutanamide] has a Ki of 225000 nM.
